This note sets out measurements from PubChem BioAssay AID1996.

Each structure is given as a SMILES string. Values after ≈ are worked out from the molar mass of the structure shown. Bounds are passed on as bounds.

The kinetic solubility is solubility judged after dilution from a stock solution rather than from solid.

For this data set the following is noted: buffer; pH 7.4; 200.0 µM.
On to `CCOc1ccc(N2CC(C(=O)NCCc3ccc(F)cc3)CC2=O)cc1` (stereo not drawn), for which the kinetic solubility came out at 30.8 µg/mL (≈ 83.1 µM).

With `O=C(Cc1ccc(Cl)c(Cl)c1)NC1CCCCCC1`, the solubility (kinetic) came to 3.2 µg/mL (≈ 10.7 µM). The figure for `Cc1cc(NC(=O)c2ccc(C)o2)no1` is above 30.9 µg/mL; for `CC1CCCCN1CC(=O)c1c[nH]c2ccccc12` (stereo not drawn) it is above 38.5 µg/mL; for `Cc1ccc(OCCCN2C(=O)C(=O)c3cc(C)ccc32)cc1` it is below 0.7 µg/mL. Consider `Cn1c(SCC#N)nc2ccccc2c1=O`, for which the kinetic solubility came to 30.2 µg/mL (≈ 131 µM). Then `CCc1noc(C)c1C(=O)N1CCN(S(=O)(=O)c2ccc(Cl)s2)CC1`, with 55.4 µg/mL (≈ 137 µM); and `O=C(COc1ccc([N+](=O)[O-])cc1Cl)Nc1ccc2[nH]c(=O)[nH]c2c1`, with 7.5 µg/mL (≈ 20.7 µM). Compound `CC(=O)c1cn(CC(=O)Nc2ccccc2Cl)c2ccccc12` displayed a kinetic solubility of 1 µg/mL (≈ 3.06 µM). Then `CN(C(=S)NC(=O)c1ccc(Cl)cc1)C1CCCCC1`, with 6.4 µg/mL (≈ 20.6 µM); and `Cc1ccc(CC2SC(N=C(N)N)=NC2=O)cc1` (stereo not drawn), with above 39.3 µg/mL; and `CCOc1ccc(CC(=O)Nc2nccs2)cc1`, with 7.7 µg/mL (≈ 29.4 µM). The figure for `CCOC(=O)C1CCN(c2ncnc3c(C)csc23)CC1` is 37.8 µg/mL (≈ 124 µM). Then `Cc1cc(C)cc(C(=O)Oc2cc(C)[nH]c(=O)c2[N+](=O)[O-])c1`, with above 45.3 µg/mL.

`CCC(C)NC(=O)c1ccc(NC(=O)C2=C(C)OCCS2)cc1` (stereo not drawn) came in with a solubility (kinetic) above 50.2 µg/mL. In the case of `COCC1CCCN(Cc2nc(Cc3ccccc3)no2)C1` (stereo not drawn), the kinetic solubility amounted to 44.7 µg/mL (≈ 148 µM). The figure for `O=C(COC(=O)C12CC3CC(CC(C3)C1)C2)Nc1ccc2[nH]c(=O)[nH]c2c1` is 1.3 µg/mL (≈ 3.52 µM); for `COc1ccc(NC(=O)c2ccc3nc[nH]c3c2)c(OC)c1` it is 42.9 µg/mL (≈ 144 µM); for `Cl.Clc1cccc(OCCn2ccnc2)c1` it is above 38.9 µg/mL. The figure for `CCN(CC)C(=O)c1ccc(COc2ccccc2Cl)o1` is 45.5 µg/mL (≈ 148 µM); for `COc1ccc(CN2C(=O)c3ccccc3C2=O)cc1` it is 6 µg/mL (≈ 22.4 µM); for `COc1ccc(C(CNC(=O)Cc2c(F)cccc2Cl)N2CCCCC2)cc1` (stereo not drawn) it is 59.1 µg/mL (≈ 146 µM).

In the case of `COc1ccc(CNC(=O)c2cc3cc(OC)ccc3oc2=O)cc1`, the kinetic solubility was below 0.7 µg/mL. `CCOCCCn1c(=NC(C)=O)c(C#N)cc2c(=O)n3ccccc3nc21` had a solubility (kinetic) above 54.8 µg/mL.

In turn, `Cc1cccc(NC(=O)CSc2nc(C3CC3)nc3ccccc23)c1` registered a solubility (kinetic) of 0.3 µg/mL (≈ 0.858 µM).

Compound `COc1cc(C)nc(-n2nc(C)cc2OC)n1` displayed a solubility (kinetic) above 35.1 µg/mL. The compound `CCc1ccccc1NS(=O)(=O)Cc1ccccc1` yielded a kinetic solubility of 40.2 µg/mL (≈ 146 µM). The figure for `COc1ccc(Br)cc1CN(C)C(=O)C1=CC=CN2CCS(=O)(=O)N=C12` is 43.1 µg/mL (≈ 97.9 µM); for `O=C(COc1ccc2c(c1)CCC2)Nc1ccccn1` it is 14.2 µg/mL (≈ 52.9 µM). Then `CCOc1ccc(NC(=O)CCn2ccnc2)cc1`, with above 38.9 µg/mL; and `COCCNc1nc2nonc2nc1N(C)Cc1ccc(C)cc1`, with above 49.3 µg/mL; and `CC(=O)Cn1cnc2scc(-c3ccc(C)c(C)c3)c2c1=O`, with 43.7 µg/mL (≈ 140 µM).

As for `COc1ccc(Cl)cc1NC(=O)CCN1CCOCC1`, the kinetic solubility is above 44.8 µg/mL. With `Cc1ccccc1C(=O)NCCN1CCOCC1.Cl`, the solubility (kinetic) was above 42.7 µg/mL.

The compound `O=C(CN1C(=O)C(=O)N(Cc2ccco2)C1=O)Nc1ccccc1` came in with a kinetic solubility above 49.1 µg/mL. Then `CC(=O)Nc1ccc(OS(=O)(=O)c2ccccc2C)cc1`, with 35.2 µg/mL (≈ 115 µM). Then `CCc1ccc(S(=O)(=O)N2CCN(c3ncccn3)CC2)cc1`, with 1.7 µg/mL (≈ 5.11 µM). The figure for `CCOc1ccccc1Oc1nc(-c2ccccc2O)nc2ccccc12` is 0.6 µg/mL (≈ 1.67 µM). As for `CN1CCc2c(sc(N)c2C(=O)c2ccc(Cl)cc2)C1`, the solubility (kinetic) was found to be 41.5 µg/mL (≈ 135 µM). The compound `CN(C)CCC#CC1(O)c2ccccc2-c2ccccc21` had a solubility (kinetic) of 32.2 µg/mL (≈ 116 µM). The solubility kinetic values of the last two compounds are within 1.5-fold of each other. The figure for `CCCCC(CCC(=O)Nc1cccc([N+](=O)[O-])c1)C(=O)O` (stereo not drawn) is 43.7 µg/mL (≈ 142 µM); for `Cc1ccc(OCC(=O)NCCc2c[nH]c3ccccc23)cc1` it is 4.9 µg/mL (≈ 15.9 µM). Then `N#Cc1ccccc1OCC(=O)Nc1ccc2c(c1)OCCO2`, with 19.7 µg/mL (≈ 63.5 µM). Then `CCn1c(=O)c(C(=O)NCc2ccccc2)c(O)c2ccccc21`, with below 0.3 µg/mL. The compound `CC(CC(=O)O)CC(=O)Nc1cc(C(F)(F)F)cc(C(F)(F)F)c1` (stereo not drawn) displayed a kinetic solubility above 53.6 µg/mL.

Consider `CC(=O)c1ccc(NC(=O)COC(=O)c2ccc(F)cc2F)cc1`, for which the kinetic solubility is 15.2 µg/mL (≈ 45.6 µM).

`COc1cc(CNC(C)(C)C)ccc1OCC(=O)NC(C)(C)C` showed a kinetic solubility above 48.4 µg/mL. The figure for `Cc1ccc(S(=O)(=O)NCCNc2ccc(Br)c(C)c2)cc1` is 0.6 µg/mL (≈ 1.57 µM). As to `O=C(COc1ccc2ccccc2c1)NCC1CCCO1` (stereo not drawn), the kinetic solubility came out at 36.9 µg/mL (≈ 129 µM). The figure for `O=C(COC(=O)c1ccc(Br)o1)NCc1ccc(Cl)cc1` is 7.2 µg/mL (≈ 19.3 µM). As to `CCOc1ccc2nc(NC(=O)c3ccco3)sc2c1`, the kinetic solubility is 6.9 µg/mL (≈ 23.9 µM). Take `Cc1ccc(CN(C)C(=O)c2cccc(S(=O)(=O)N3CCCC3)c2)o1`: the solubility (kinetic) is above 54.4 µg/mL. Then `Cn1c(=O)c2c(nc(N3CCCC3)n2C)n(C)c1=O`, with above 39.5 µg/mL.
